Measured values: patent publication US4416892A, “Method of treating hypersensitivity disease with benzoxazole derivatives” (Lilly Industries Limited, priority 1981, dated 1983)

What follows are compounds tested on SRS-A release (assay: guinea-pig chopped lung test (inhibition of SRS-A / mediator release)). Conditions: Cavia porcellus, 0.25 h; 3×10^-5 M; ovalbumin-sensitised guinea pig lung, antigen challenge, 37° C., 15 mins; mean of four samples.
Type: cell-based
Method: These tests are well-recognised as indicative of anti-allergy activity in humans and mammals in general. Compounds were tested in the guinea pig chopped lung test referred to above. […] Male albino guinea pigs (250-350 g) were sensitised with ovalbumin (100 mg s/c+100 mg i p.) and three weeks later killed, their lungs removed and perfused clear of blood with Tyrode's solution. The lungs were chopped into 0.5 mm cubes and divided into 400 mg aliquots. After washing and equilibration at 37° C., the aliquots were challenged with antigen in the presence or absence of the test compound. One control group was not challenged and was used to assess non-anaphylactic SRS-A release. Following incubation with rocking at 37° C. for 15 mins, each supernatant was removed and bio-assayed. Results are expressed as the percentage inhibition of SRS-A release after exposure to 3×10^-5M solutions of test compound. Each result is the mean of four samples.

Row | Structure (SMILES) | inhibition at 30 µM
1 | CC(C(=O)O)c1ccc2nc(-c3ccccc3Cl)oc2c1 (stereo not drawn) [2-(2-chlorophenyl)-α-methyl-6-benzoxazoleacetic acid] | 16%
2 | CC(C(=O)O)c1ccc2oc(-c3cccc(C(F)(F)F)c3)nc2c1 (stereo not drawn) [2-(3-trifluoromethylphenyl)-α-methyl-5-benzoxazoleacetic acid] | 27%
3 | CC(C(=O)O)c1ccc2nc(-c3ccc(Cl)cc3)oc2c1 (stereo not drawn) [2-(4-chlorophenyl)-α-methyl-6-benzoxazoleacetic acid] | 38%
4 | CC(C(=O)O)c1ccc2oc(-c3ccc(Cl)cc3)nc2c1 (stereo not drawn) [2-(4-chlorophenyl)-α-methyl-5-benzoxazoleacetic acid] | 62%
5 | CC(C(=O)O)c1ccc2oc(-c3ccc(F)cc3)nc2c1 (stereo not drawn) [2-(4-fluorophenyl)-α-methyl-5-benzoxazoleacetic acid] | 36%

These compounds were tested on allergic bronchospasm (assay: Herxheimer test (allergic bronchospasm in sensitised guinea pigs)). Conditions: dose 50 (first column; head is a drawing), oral, 4 hours before ovalbumin challenge, mepyramine 0.5 mg/kg s.c.; ratio of 1.4 or greater significant.
Type: in vivo, guinea pig
Method: Male guinea pigs were sensitised with ovalbumin and then exposed to ovalbumin aerosol (1% w/v solution) in an observation chamber. The animals were kept in the exposure chamber until symptoms of respiratory distress, terminating in a characteristic convulsive cough. The time of exposure is the "collapse time". […] Accordingly, the response to each compound in the presence of mepyramine (0.5 mg/kg s.c.) given half an hour before challenge was studied. The compound itself was given orally four hours before antigen challenge. A protection ratio of 1.4 or greater is considered significant.

Row | Structure (SMILES) | protection ratio
6 | CC(C(=O)O)c1ccc2oc(-c3ccc(Cl)cc3)nc2c1 (stereo not drawn) [2-(4-chlorophenyl)-α-methyl-5-benzoxazoleacetic acid] | 2.7
